In US10662445B2, “Process for the production of bio-butanol by fermentation of glycosidic waste matter” (priority 2018, dated 2020):
Blank lines part the entries; values can stand above or below the molecule they belong to.

Legend:
[1] = test system: Clostridium beijerinckii NRRL B-466 (CB); test: Bio-compatibility (solvent toxicity) batch ABE fermentation, CB
Description: (§1) Clostridium acetobutylicum NRRL B-582 (ATCC-824) (CA) and Clostridium beijerinckii NRRL B-466(CB) were considered for current investigation to produce bio-butanol from different brewery industry wastes. They were kindly provided by Agricultural Research Station, USDA (USA). The microorganisms were grown and maintained in peptone-yeast extract-glucose (PYG) media under anaerobic condition (vegetative growth) at 37±1° C. and 150 rpm for 24 h and 17 h, respectively, before being transferred into the fermentation medium. The medium (g L^−1) comprised: glucose (10); yeast extract (10); peptone (5); tryptone (5); cysteine-HCl (0.5); K2HPO4 (2.04); KH2PO4 (0.04); FeSO4*7H2O (1.1×10^−3); CaCl2 (8×10^−3); MgSO4*7H2O (0.0192); NaCl (0.08); and NaHCO3 (0.4). 125 mL serum bottles (working volume 50 mL) were used for both butanol production and inoculum development (Maiti et al., January 2016, Maiti et al., August 2015). Anaerobic conditions were maintained within the bottle by sparging N2 for 10 minutes and immediately sealed by an aluminum crimp seal containing silicone septum (Fisher scientific, Canada) by means of a hand operated crimper (E-Z Crimper™, VWR, Ontario, Canada). Prior to culture development, the medium was sterilized for 20 min at 121±1° C. About 10% (v/v) (dry cell weight […]) of microbial culture in its exponential phase of growth (OD600nm=1.3-1.5) was used as inoculum for all the experiments conducted in this investigation.
(§2) Set-1, set-4 and set-5 were included as control-1, control-2 and control-3 respectively. All the experiments were carried out in P2 nutrient media as described later in batch fermentation section.
(§3) Batch fermentation was performed in 125 mL serum vials (working volume of 50 mL) at pH 6.7±0.1. The P2 medium was sterilized at 121±1° C. for 20 min. Prior to fermentation, anaerobic conditions for each bottle were maintained by sparging the medium with N2 for 10 minutes and immediately closing with an aluminum crimp seal containing silicon septum (Fisher scientific, Canada) by means of a hand-operated crimper (E-Z Crimper™, VWR, Ontario, Canada). A modified P2 medium, with the following composition, was used for fermentation experiments: Buffer→KH2PO450 g/L, K2HPO450 g/L, ammonium acetate 220 g/L; Minerals→MgSO4*7H2O 20 g/L, MnSO4*H2O 1 g/L, FeSO4*7H2O 1 g/L, NaCl 1 g/L; Vitamins→thiamin 0.1 g/L, biotin 0.001 g/L). Since brewery industry wastes were already enriched with yeast protein, no additional yeast protein nor peptone were supplemented.
(§4) The fermentation was initiated by inoculating the P2 medium with the seed cultures at a ratio of 10% (v:v). […] Fermentation experiments were performed at 37±1° C. with shaking at 150 rpm for 72 h in duplicates. 1 mL of culture broth from each batch assay was used for metabolite analysis. Data described here present average values from duplicate runs for duplicate samples.
(§5) To determine the different metabolites produced during ABE fermentation (i.e. butanol, ethanol, acetone, butyric acid, and acetic acid) liquid samples from each fermentation broth were collected and analyzed using gas chromatography (GC) (GC7890B, Agilent Technologies, USA) equipped with a FID detector and a HP-INNOWax™ column (30 m, 0.25 mm ID, 0.25 μm df). Isobutanol was used as the internal standard. Before injecting the sample (1 mL) in the GC for products analysis, the sample was centrifuged for 5 minutes at 7650×g and the supernatant was filtered by 0.45 μm syringe filter. The GC conditions comprised: helium carrier gas at a flow rate of 1 mL/min with a temperature ramp from the initial temperature of 50° C. to 150° C.

[2] = test system: Clostridium acetobutylicum NRRL B-582 (ATCC-824) (CA); test: Bio-compatibility (solvent toxicity) batch ABE fermentation, CA; settings: CA
Description: as §1, §2, §3, §4, §5

[3] = Organic-solvent extraction of microbial inhibitors from an agro-waste hydrolysate mimic; type: physicochemical; settings: for HMF remaining after extraction: standard 2.723 g/L; for Furfural remaining after extraction: standard 2.956 g/L; for TRS (total reducing sugar) after extraction: standard 52.00 g/L; for Inhibitor extraction, phase separation by centrifugal force / Inhibitor extraction, phase separation by separating funnel: solvent bis-(2-ethylhexyl) sebacate
From the text: Media composition was designed according to the inhibitory compound limit concentration reported in the literature for bio-butanol producing solventogenic Clostridia (Baral et al. Microbial inhibitors: formation and effects on acetone-butanol-ethanol fermentation of lignocellulosic biomass. Applied microbiology and biotechnology, Vol. 98(22), 2014: 9151-9172; Qureshi et al. Production of butanol (a biofuel) from agricultural residues: Part I—Use of barley straw hydrolysate. Biomass and bioenergy, Vol. 34(4), 2010: 559-565). Different volume ratio of the hydrolysate mimic and organic solvents, such as (5:1), (3:1), (2:1), (1:1) and (1:2) (vaqueous:vorganic) were tried in order to minimize extractant expenditure. Organic and aqueous phase mixing was carried out by a propeller impeller. Rotation rate (100, 200, 250, 300 and 400 rpm) and operation-time (15, 30, 45, 60 and 90 min) were tested at room temperature (25° C.). A comparative study between settling through separating funnel vs. centrifugal force assisted separation was also made to guarantee an optimal recovery of the broth phase.
A complex mixture of several reduced sugar compounds (e.g. as glucose, fructose, and xylose) and microbial inhibitors (furfural, HMF, acetic acid, levulinic acid, vanillin, vanillic acid, feluric acid and syringaldehyde) were produced during the pretreatment step (hydrolysis). In order to analyse these compounds, liquid samples were collected and analyzed using liquid chromatography-mass spectrometry (LC-MS) and liquid chromatography-tandem mass spectrometry (LC/MS-MS) equipped with a ZORBAX Carbohydrate column (5 μm, 150×4.6 mm ID column) (Agilent Technologies, USA) with D6 glucose as the internal standard and a Biobasic-18 column (5 μm, 250×4.6 mm ID) (Agilent Technologies, USA) with phenylethanol-D5 as the internal standard. […] Methanol water (8:2) and acetonitrile water (8.5:1.5) were used to dilute the sample before inhibitor and carbohydrate analysis. […]

[4] = (5-15%) solvent supplemented to 52 g/L glucose
[5] = Control-1 (52 g/L glucose) + (5-15)% solvent, 72 h, P2 medium
[6] = Extraction 1, Vaqueous:Vorganic = 2:1, hydrolysate mimic
[7] = Extraction 1, Vaqueous:Vorganic = 2:1, hydrolysate mimic, standard 565.9 mg/L
[8] = Extraction 2, Vaqueous:Vorganic = 2:1, hydrolysate mimic
[9] = Extraction 3, Vaqueous:Vorganic = 2:1, hydrolysate mimic
[10] = Extraction 4, Vaqueous:Vorganic = 2:1, hydrolysate mimic
[11] = first stage, ratio 2:1, hydrolysate mimic
[12] = homogenizer rotational speed 100 rpm
[13] = homogenizer rotational speed 200 rpm
[14] = homogenizer rotational speed 250 rpm
[15] = homogenizer rotational speed 300 rpm
[16] = homogenizer rotational speed 400 rpm

SMILES: CCCCCCCCCC(C)=O [2-undecanone]
Reduction of bio-butanol generation in comparison with set-1 [1, 4]: 67%
ABE [1, 5]: 4.28 ± 0.4 g/L
Butanol [1, 5]: 3.11 ± 0.3 g/L
Reduction of bio-butanol generation in comparison with set-1 [2, 4]: 70%
ABE [2, 5]: 3.82 ± 0.2 g/L
Butanol [2, 5]: 2.77 ± 0.12 g/L
Ferulic acid removal [3, 6]: 99%
Furfural removal [3, 6]: 87%
HMF removal [3, 6]: 90%
Syringaldehyde removal [3, 6]: 97%
TRS removal [3, 6]: 0%
Vanillic acid removal [3, 6]: 95%
Vanillin removal [3, 6]: 98%
Syringaldehyde remaining after extraction ([3]; Extraction 1, Vaqueous:Vorganic = 2:1, hydrolysate mimic, standard 300.2 mg/L): 7.6 mg/L
Ferulic acid remaining after extraction ([3]; Extraction 1, Vaqueous:Vorganic = 2:1, hydrolysate mimic, standard 485.6 mg/L): 0.7 mg/L
Vanillic acid remaining after extraction [3, 7]: 9.8 mg/L
Vanillin remaining after extraction [3, 7]: 10.3 mg/L
HMF remaining after extraction [3, 6]: 0.267 g/L
Furfural remaining after extraction [3, 6]: 0.392 g/L
TRS (total reducing sugar) after extraction [3, 6]: 52.00 g/L
Ferulic acid removal [3, 8]: 100%
Furfural removal [3, 8]: 97%
HMF removal [3, 8]: 97%
Syringaldehyde removal [3, 8]: 100%
TRS removal [3, 8]: 0%
Vanillic acid removal [3, 8]: 100%
Vanillin removal [3, 8]: 100%
HMF remaining after extraction [3, 8]: 0.077 g/L
Furfural remaining after extraction [3, 8]: 0.082 g/L
TRS (total reducing sugar) after extraction [3, 8]: 52.00 g/L
Ferulic acid removal [3, 9]: 100%
Furfural removal [3, 9]: 100%
HMF removal [3, 9]: 100%
Syringaldehyde removal [3, 9]: 100%
TRS removal [3, 9]: 0%
Vanillic acid removal [3, 9]: 100%
Vanillin removal [3, 9]: 100%
TRS (total reducing sugar) after extraction [3, 9]: 52.00 g/L
Ferulic acid removal [3, 10]: 100%
Furfural removal [3, 10]: 100%
HMF removal [3, 10]: 100%
Syringaldehyde removal [3, 10]: 100%
TRS removal [3, 10]: 0%
Vanillic acid removal [3, 10]: 100%
Vanillin removal [3, 10]: 100%
TRS (total reducing sugar) after extraction [3, 10]: 52.00 g/L
Extraction efficiency for phenolic compounds [3, 11]: higher than 95%
Extraction efficiency towards furan derivatives [3, 11]: 87-90%

SMILES: O=Cc1ccco1 [Furfural, furfural]
Inhibitor extraction, phase separation by centrifugal force [3, 12]: 68%
Inhibitor extraction, phase separation by separating funnel [3, 12]: 65%
Inhibitor extraction, phase separation by centrifugal force [3, 13]: 69%
Inhibitor extraction, phase separation by separating funnel [3, 13]: 68%
Inhibitor extraction, phase separation by centrifugal force [3, 14]: 78%
Inhibitor extraction, phase separation by separating funnel [3, 14]: 75%
Inhibitor extraction, phase separation by centrifugal force [3, 15]: 78%
Inhibitor extraction, phase separation by separating funnel [3, 15]: 76%
Inhibitor extraction, phase separation by centrifugal force [3, 16]: 80%
Inhibitor extraction, phase separation by separating funnel [3, 16]: 78%

SMILES: O=Cc1ccc(CO)o1 [HMF, hydroxymethyl furfural]
Inhibitor extraction, phase separation by centrifugal force [3, 12]: 71%
Inhibitor extraction, phase separation by separating funnel [3, 12]: 71%
Inhibitor extraction, phase separation by centrifugal force [3, 13]: 74%
Inhibitor extraction, phase separation by separating funnel [3, 13]: 73%
Inhibitor extraction, phase separation by centrifugal force [3, 14]: 79%
Inhibitor extraction, phase separation by separating funnel [3, 14]: 78%
Inhibitor extraction, phase separation by centrifugal force [3, 15]: 82%
Inhibitor extraction, phase separation by separating funnel [3, 15]: 80%
Inhibitor extraction, phase separation by centrifugal force [3, 16]: 84%
Inhibitor extraction, phase separation by separating funnel [3, 16]: 80%

Inhibitor extraction, phase separation by centrifugal force [3, 12]: 95%
Inhibitor extraction, phase separation by separating funnel [3, 12]: 93%
Inhibitor extraction, phase separation by centrifugal force [3, 13]: 95%
Inhibitor extraction, phase separation by separating funnel [3, 13]: 93%
Inhibitor extraction, phase separation by centrifugal force [3, 14]: 97%
Inhibitor extraction, phase separation by separating funnel [3, 14]: 95%
Inhibitor extraction, phase separation by centrifugal force [3, 15]: 97%
Inhibitor extraction, phase separation by separating funnel [3, 15]: 97%
Inhibitor extraction, phase separation by centrifugal force [3, 16]: 96%
Inhibitor extraction, phase separation by separating funnel [3, 16]: 97%
SMILES: COc1cc(C=O)ccc1O [Vanillin, vanillin]
